Some test systems named below: SK-MEL-28 melanoma; SK-MEL-2 melanoma; SNB-75 CNS; NCI-H23 lung; PC-3 prostate; DU-145 prostate; SK-OV-3 ovarian.
Experiment in all cases: DTP human tumour cell line panel, 48 h

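How tested: cells in 96-well plates exposed to compound for 48 hours at five concentrations. The concentration for 50% growth inhibition is given as GI50. Definition used: TGI = concentration required for complete inhibition of growth.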 Some results are limits rather than exact numbers.

By GI50 is commonly meant the concentration at which growth is held to half of that of the control. By TGI is commonly meant the concentration giving total growth inhibition. Low readings indicate more potent growth arrest, high ones less potent growth arrest. As for `CCN(C(=O)N1CCN(c2cc3c(cc2F)c(=O)c(C(=O)O)cn3C2CC2)CC1)c1nc(-c2ccc(C)cc2)cs1`, the GI50 in the test with SK-MEL-28 melanoma is 0.687 µM; in the test with SK-MEL-2 melanoma, 2.5 µM; in the test with SNB-75 CNS it was 1.09 µM; in the test on NCI-H23 lung, 0.399 µM; with PC-3 prostate it was 0.375 µM; with DU-145 prostate, 0.442 µM. The GI50 in the test with SK-OV-3 ovarian is 1.53 µM. Moreover, the TGI was > 100 µM in the test on SK-MEL-28 melanoma; 7.38 µM in the test with SK-MEL-2 melanoma; 5.08 µM in the test on SNB-75 CNS; 24.6 µM in the test with NCI-H23 lung; > 100 µM in the test on PC-3 prostate; 82.8 µM in the test with DU-145 prostate. The molecule further came in with a TGI in the test on SK-OV-3 ovarian of 19.4 µM.

For the molecule `O=C(c1ccccc1)C(CN1CCOCC1)c1ccccc1` (configuration not stated), the GI50 in the test on SK-MEL-28 melanoma was 1.76 µM; in the test on SK-MEL-2 melanoma it was 1.67 µM; in the test on SNB-75 CNS it was 2.29 µM; in the test on NCI-H23 lung it was 2.79 µM; in the test with PC-3 prostate, 2.93 µM; in the test with DU-145 prostate, 1.16 µM. For the same molecule, the GI50 in the test on SK-OV-3 ovarian was 5.18 µM. Also, the TGI with SK-MEL-28 melanoma is 3.35 µM; with SK-MEL-2 melanoma it was 3.39 µM; with SNB-75 CNS it was 12 µM; in the test with NCI-H23 lung, 12.3 µM; with PC-3 prostate it was 13.3 µM; with DU-145 prostate it was 2.44 µM. For the same molecule, in the test on SK-OV-3 ovarian, the TGI stood at 17.9 µM.

As to `CCN1CCC(CCOC)(CN2c3ccccc3Sc3ccc(Cl)cc32)C1` (configuration not stated), the GI50 is 1.97 µM in the test with SK-MEL-28 melanoma; 2.54 µM in the test with SK-MEL-2 melanoma; 2.25 µM with SNB-75 CNS; 2.2 µM in the test with NCI-H23 lung; 2.03 µM in the test on PC-3 prostate; 1.92 µM in the test with DU-145 prostate. The GI50 in the test on SK-OV-3 ovarian was 1.91 µM. In addition, the TGI is 3.62 µM with SK-MEL-28 melanoma; 4.74 µM in the test on SK-MEL-2 melanoma; 5.8 µM with SNB-75 CNS; 6.16 µM in the test with NCI-H23 lung; 4.74 µM in the test on PC-3 prostate; 3.68 µM in the test on DU-145 prostate. The TGI in the test on SK-OV-3 ovarian is 3.88 µM.

With `N#C/C(=C\c1c(-c2ccccc2)[nH]c2ccccc12)S(=O)(=O)c1ccccc1`, the GI50 was 5.97 µM in the test on SK-MEL-28 melanoma; 12.5 µM in the test on SK-MEL-2 melanoma; 1.67 µM with SNB-75 CNS; 4.26 µM in the test on NCI-H23 lung; 3.34 µM with PC-3 prostate; 2.4 µM with DU-145 prostate. Besides, in the test with SK-OV-3 ovarian, the GI50 was 6.39 µM. The concentration for total growth inhibition (TGI) with SK-MEL-28 melanoma is 28.8 µM; in the test on SK-MEL-2 melanoma, 45.3 µM; with SNB-75 CNS, 29.4 µM; in the test with NCI-H23 lung it was > 58.5 µM; in the test with PC-3 prostate, > 53.9 µM; with DU-145 prostate it was 20.1 µM. For the same molecule, the TGI in the test with SK-OV-3 ovarian was > 71.5 µM.

As to `CN1CCN(Cc2ccc(NC(=O)c3cncc(C#Cc4cnc(N)c5ccncc45)c3)cc2C(F)(F)F)CC1`, the concentration for 50% growth inhibition (GI50) in the test on SK-MEL-28 melanoma was 0.245 µM; in the test on SK-MEL-2 melanoma, 0.3 µM; in the test on SNB-75 CNS, 0.898 µM; in the test with NCI-H23 lung it was 0.9 µM; in the test with PC-3 prostate it was 1.77 µM; in the test on DU-145 prostate, 0.527 µM. Also, the GI50 in the test with SK-OV-3 ovarian is 0.687 µM. The TGI was 2.18 µM with SK-MEL-28 melanoma; 1.07 µM in the test on SK-MEL-2 melanoma; 5.08 µM in the test with SNB-75 CNS; 6.79 µM with NCI-H23 lung; 9.18 µM in the test on PC-3 prostate; 6.67 µM with DU-145 prostate. Besides, the TGI with SK-OV-3 ovarian was > 50 µM.

Consider `O=[N+]([O-])c1cccc(-c2nc3sccn3c2-c2ccnc(NCCCNS(=O)(=O)c3cccc(F)c3)n2)c1`, for which the GI50 was 2.63 µM in the test on SK-MEL-28 melanoma; 2.04 µM with SK-MEL-2 melanoma; 1.52 µM in the test with SNB-75 CNS; 1.98 µM in the test on NCI-H23 lung; 1.37 µM in the test with PC-3 prostate; 2.6 µM in the test with DU-145 prostate. For the same molecule, in the test on SK-OV-3 ovarian, the GI50 is 5.82 µM. Moreover, the concentration for total growth inhibition (TGI) with SK-MEL-28 melanoma worked out at 7.76 µM; in the test with SK-MEL-2 melanoma, 5.98 µM; in the test on SNB-75 CNS, 4.24 µM; in the test with NCI-H23 lung, 7.34 µM; in the test with PC-3 prostate it was 6.62 µM; in the test on DU-145 prostate, 12.9 µM. For the same molecule, the concentration for total growth inhibition (TGI) with SK-OV-3 ovarian came out at 30.5 µM.

As to `O=C1c2ccccc2-c2c1c1ccc([N+](=O)[O-])cc1c(=O)n2CCCBr`, the GI50 with SK-MEL-28 melanoma is > 100 µM; with SK-MEL-2 melanoma, > 100 µM; with SNB-75 CNS, > 100 µM; in the test on NCI-H23 lung, 1.1 µM; in the test with PC-3 prostate, > 100 µM; in the test on DU-145 prostate, > 100 µM. Also, in the test with SK-OV-3 ovarian, the GI50 was > 100 µM. The TGI in the test with SK-MEL-28 melanoma was > 100 µM; with SK-MEL-2 melanoma, > 100 µM; in the test on SNB-75 CNS, > 100 µM; in the test on NCI-H23 lung it was 5.76 µM; with PC-3 prostate it was > 100 µM; in the test with DU-145 prostate, > 100 µM. In the test on SK-OV-3 ovarian, the TGI is > 100 µM.

On to `COC(=O)C(Cc1ccccc1)NC(=O)NC(=O)NC(=O)CI` (configuration not stated), for which the GI50 was 3.5 µM in the test with SK-MEL-28 melanoma; 16.4 µM in the test with SK-MEL-2 melanoma; 16.2 µM in the test with SNB-75 CNS; 6.79 µM in the test with NCI-H23 lung; 17.3 µM in the test with PC-3 prostate; 12.1 µM in the test with DU-145 prostate. In the test on SK-OV-3 ovarian, the GI50 is 15.8 µM. Besides, the TGI worked out at 13.8 µM with SK-MEL-28 melanoma; 30.7 µM in the test with SK-MEL-2 melanoma; 36.7 µM in the test with SNB-75 CNS; 28.2 µM in the test on NCI-H23 lung; 33.1 µM in the test on PC-3 prostate; 25.3 µM in the test on DU-145 prostate. The same molecule showed a TGI with SK-OV-3 ovarian of 29.4 µM.

These data come from PubChem BioAssay (NCI).
